≈ marks a conversion by molar mass, not a printed value. Like-named read-outs stand apart in the source and are kept apart here.
How the values were obtained:
[1] = test system: Cdc2 Tyr15-phosphorylation (pY15-Cdc2); test: WEE1 cell cycle inhibitory activity in cells: pY15-Cdc2 immunoblot; format: cell-based, human; conditions: LNCaP cells, 3 uM, 48 hours (FIG. 2A)
Description: FIGS. 2A-2B show identification of 3 distinct types of inhibitors. […] In addition, the lysates were also subjected to by immunoblotting with […]-Cdc2 or actin antibodies (middle and bottom panels). […] The number vehicle treated cells were used as control and percent of surviving cells were plotted. […] In addition, the lysates were also subjected to immunoblotting with actin antibodies (bottom panel). Identification of compounds with WEE1 epigenetic inhibitory role: 14 'hits' that were identified in the screen are shown in FIG. 1. These compounds were further tested for their ability to inhibit WEE1 epigenetic activity. Prostate cancer derived LNCaP cells were treated with 3 uM of compounds for 48 hours. […] Lysates were also assessed for WEE1 cell cycle inhibitory activity by determining Cdc2 Tyr15-phosphorylation ([…]-Cdc2). […] These are named as 'Cell Cycle' inhibitors. […] These compounds are the 'Epigenetic' inhibitors.

Solubility = format: physicochemical
Procedure: (§1) ADME studies with 55152 (18-B3) and 367416 (16-G9): The solubility, microsome stability and plasma stability of these two compounds were also determined (Table 2).

[2] = Microsome Stability, Mouse; format: in vitro ADME
Procedure: as §1

[3] = target: full length human WEE1 kinase (Homo sapiens, UniProt P30291); test: In vitro kinase assay, purified full length WEE1, pTyr immunoblot; format: biochemical; parameters: a full length WEE1 kinase protein was incubated with the compounds; conditions: purified full length WEE1, 100 nM (FIG. 3A, 4A)
Chain of full length human WEE1 kinase (P30291 whole entry): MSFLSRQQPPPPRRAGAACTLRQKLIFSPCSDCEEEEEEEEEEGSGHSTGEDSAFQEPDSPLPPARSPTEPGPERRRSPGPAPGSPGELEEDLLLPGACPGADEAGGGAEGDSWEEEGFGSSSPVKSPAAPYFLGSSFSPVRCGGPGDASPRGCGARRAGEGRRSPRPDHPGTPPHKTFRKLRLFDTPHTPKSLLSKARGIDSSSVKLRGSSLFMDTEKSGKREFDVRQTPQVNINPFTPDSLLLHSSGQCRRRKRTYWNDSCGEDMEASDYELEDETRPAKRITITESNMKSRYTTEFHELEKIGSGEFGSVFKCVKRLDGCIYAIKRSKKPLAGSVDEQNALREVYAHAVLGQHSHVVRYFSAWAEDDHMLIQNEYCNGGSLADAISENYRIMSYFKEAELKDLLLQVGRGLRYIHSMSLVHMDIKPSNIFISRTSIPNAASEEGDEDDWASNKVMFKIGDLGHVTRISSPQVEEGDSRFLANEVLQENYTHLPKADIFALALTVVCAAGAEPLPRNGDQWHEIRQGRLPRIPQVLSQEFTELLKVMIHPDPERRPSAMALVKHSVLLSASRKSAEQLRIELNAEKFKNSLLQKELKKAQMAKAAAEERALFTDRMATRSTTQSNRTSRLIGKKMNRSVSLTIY
Procedure: The reaction mix was then subjected to immunoprecipitated with WEE1 antibodies, followed by immunoblotting with pTyr antibodies (top panel). As a control, purified ACK1 protein was incubated in the reaction buffer containing ATP, in presence of 100 nM epigenetic inhibitors. The reaction mix was then subjected to immunoprecipitated with ACK1 antibodies, followed by immunoblotting with pTyr antibodies (bottom panel). […] In addition, the lysates were also subjected to immunoblotting with actin antibodies (bottom panel). […] In addition, the lysates were also subjected to immunoblotting with actin antibodies (bottom panel).
FIGS. 4A-4B show structures of ‘hits’ identified in WEE1 epigenetic inhibitor screen. […] The reaction mix was then subjected to immunoprecipitated with WEE1 antibodies, followed by immunoblotting with pTyr antibodies. […] In addition, the lysates were also subjected to immunoblotting with actin antibodies (bottom panel).
To determine direct binding of these compounds causing WEE1 inhibition, a full length WEE1 kinase protein was incubated with the compounds. […] As a control, purified ACK1 kinase was also incubated with these compounds, none of these compounds were able to inhibit ACK1 kinase activity. These inhibitors were further validated by assessing their ability to suppress endogenous WEEE activity; LNCaP cells were treated with 10 μM of these compounds overnight.

For `Nc1ccc(NC(=O)c2ccc(C(=O)Nc3ccc(N)cc3)cc2)cc1` [SG5-061, N^1,N^4-bis(4-aminophenyl)terephthalamide], the “Cdc2 Tyr15-phosphorylation (pY15-Cdc2)” value [1] was “did not affect Cdc2 Tyr15-phosphotylation”, the solubility (Solubility; aqueous buffer, pH 5.0, read-out: Solubility (ug/mL) pH 5.0) was 0.13 µg/mL (≈ 0.375 µM) and the solubility (Solubility; pH 6.2, aqueous buffer, read-out: Solubility (ug/mL) pH 6.2) was 0.22 µg/mL (≈ 0.635 µM). The solubility (Solubility; pH 7.4, aqueous buffer, read-out: Solubility (ug/mL) pH 7.4) was 0.15 µg/mL (≈ 0.433 µM), the “Microsome Stability % remaining @ 1 hr Mouse” value [2] was 95.21% and the “WEE1 kinase activity (pTyr immunoblot)” value ([3]; listed as 18-B3) was “suppresses kinase activation better than 16-G9”. For the same compound, the “WEE1 kinase activity (pTyr immunoblot)” value ([3]; listed as 55152 (18-B3)) was “significant loss of WEE1 kinase activity”.

Reference: patent US11987568B2, “Allosteric inhibitor of WEE1 kinase” (H. LEE MOFFITT CANCER CENTER AND RESEARCH INSTITUTE, INC., priority 2018, dated 2024)
